Data set [1] can be described thus: Octanol-water distribution coefficient (logD pH 7.4) of the labeled tracer. The following applies: n-octanol/PBS pH 7.4, room temperature. The class given is physicochemical. The gist of the method: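 About 1 MBq tracer partitioned in 1:1 PBS pH 7.4/n-octanol, mixed 3 min at room temperature, centrifuged 15000 g for 5 min. Both layers counted by gamma counter; at least six repeats.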

The target in the next data set is T1, SST2 (Homo sapiens, UniProt P30874).
T1 construct: expressed in transfected cells; host or cells: CHO (Chinese hamster ovary) cells
Put plainly: Determination of IC50: competitive binding against [125I]TOC on SST2-transfected CHO cells. The following applies: [125I]TOC reference radioligand, 60 min room temperature.

Where a SMILES comes first, the peptide text is derived from it. Bridges are numbered along the chain shown (N, C = ends). [ ]: non-standard residue; d: D form. The star is where a group is joined. ξ: configuration not given here. Benzoyl(4-SiFtBu2) = CC(C)(C)[Si](F)(c1ccc(C(=O)*)cc1)C(C)(C)C; X1 = CC(C)(C)[Si](F)(c1ccc(C[N+](C)(C)CC(=O)*)cc1)C(C)(C)C; DO3AM = NC(=O)CN1CCN(CC(N)=O)CCN(CC(=O)*)CCN(CC(N)=O)CC1; ξW = NC(Cc1c[nH]c2ccccc12)C(=O)O; dDap = NC[C@@H](N)C(=O)O; ξF = NC(Cc1ccccc1)C(=O)O; ξD = NC(CC(=O)O)C(=O)O; ξDap = NCC(N)C(=O)O; ξC = NC(CS)C(=O)O

T1 sequence (P30874 whole entry, species assumed): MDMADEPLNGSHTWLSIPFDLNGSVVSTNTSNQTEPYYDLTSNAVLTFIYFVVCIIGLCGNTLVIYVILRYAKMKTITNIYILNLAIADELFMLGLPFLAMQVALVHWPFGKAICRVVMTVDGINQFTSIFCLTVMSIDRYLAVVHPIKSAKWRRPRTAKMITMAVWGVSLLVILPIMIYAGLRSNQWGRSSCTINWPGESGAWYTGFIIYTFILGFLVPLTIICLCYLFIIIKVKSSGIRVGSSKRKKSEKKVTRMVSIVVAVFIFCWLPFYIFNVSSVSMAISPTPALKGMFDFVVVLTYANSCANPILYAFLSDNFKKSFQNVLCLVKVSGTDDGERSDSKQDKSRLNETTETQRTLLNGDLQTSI

In general, IC50 refers to the concentration needed to halve the response being measured. Read a high IC50 as lower potency. Turning to `C[C@@H](O)[C@H](NC(=O)C1CSSCC(NC(=O)C(Cc2ccccc2)NC(=O)CNC(=O)CNC(=O)[C@@H](CC(=O)O)NC(=O)C(CC(=O)O)NC(=O)[C@@H](CNC(=O)c2ccc([Si](F)(C(C)(C)C)C(C)(C)C)cc2)NC(=O)CN2CCN(CC(=O)O)CCN(CC(=O)O)CCN(CC(=O)O)CC2)C(=O)N[C@@H](Cc2ccc(O)cc2)C(=O)NC(Cc2c[nH]c3ccccc23)C(=O)N[C@@H](CCCCN)C(=O)N[C@@H]([C@@H](C)O)C(=O)N1)C(=O)O` (some centres unmarked) (natGa complex, metal not drawn) [[Ga]8], the “LogDpH=7.4” value in data set [1] was −2.02 ± 0.04. On SST2, the concentration for half-maximal inhibition (IC50) worked out at 58.5 ± 10.8 nM.

As for `C[C@@H](O)[C@H](NC(=O)C1CSSCC(NC(=O)C(Cc2ccccc2)NC(=O)CNC(=O)CNC(=O)[C@@H](CC(=O)O)NC(=O)C(CC(=O)O)NC(=O)[C@@H](CNC(=O)CN2CCN(CC(=O)O)CCN(CC(=O)O)CCN(CC(=O)O)CC2)NC(=O)c2ccc([Si](F)(C(C)(C)C)C(C)(C)C)cc2)C(=O)N[C@@H](Cc2ccc(O)cc2)C(=O)NC(Cc2c[nH]c3ccccc23)C(=O)N[C@@H](CCCCN)C(=O)N[C@@H]([C@@H](C)O)C(=O)N1)C(=O)O` (some centres unmarked) (natGa complex, metal not drawn) [[Ga]9], in data set [1], the “LogDpH=7.4” value was −2.02 ± 0.04. Moreover, on SST2, the IC50 was 63.3 ± 1.75 nM.

Take `CC(O)C(NC(=O)C1CSSCC(NC(=O)C(Cc2ccccc2)NC(=O)CNC(=O)CNC(=O)CNC(=O)[C@@H](CCCN)NC(=O)[C@@H](CCCN)NC(=O)C(CNC(=O)CN2CCN(CC(=O)O)CCN(CC(=O)O)CCN(CC(=O)O)CC2)NC(=O)C[N+](C)(C)Cc2ccc([Si](F)(C(C)(C)C)C(C)(C)C)cc2)C(=O)N[C@@H](Cc2ccc(O)cc2)C(=O)NC(Cc2c[nH]c3ccccc23)C(=O)N[C@@H](CCCCN)C(=O)N[C@@H]([C@@H](C)O)C(=O)N1)C(=O)O` (some centres unmarked) (natGa complex, metal not drawn) [[Ga]55]: in data set [1], the “LogDpH=7.4” value was −1.69 ± 0.04. The compound also displayed an IC50 at SST2 of 4.1 ± 0.54 nM.

As for `CC(O)C(NC(=O)C1CSSCC(NC(=O)C(Cc2ccccc2)NC(=O)CNC(=O)CNC(=O)CNC(=O)C(CC(N)=O)NC(=O)[C@@H](CC(N)=O)NC(=O)C(CNC(=O)CN2CCN(CC(=O)O)CCN(CC(=O)O)CCN(CC(=O)O)CC2)NC(=O)C[N+](C)(C)Cc2ccc([Si](F)(C(C)(C)C)C(C)(C)C)cc2)C(=O)N[C@@H](Cc2ccc(O)cc2)C(=O)NC(Cc2c[nH]c3ccccc23)C(=O)N[C@@H](CCCCN)C(=O)N[C@@H]([C@@H](C)O)C(=O)N1)C(=O)O` (some centres unmarked) (natGa complex, metal not drawn) [[Ga]56], in data set [1], the “LogDpH=7.4” value was −1.51 ± 0.03. In addition, the IC50 at SST2 was found to be 4 ± 0.34 nM.

Regarding `C[C@@H](O)[C@H](NC(=O)C1CSSCC(NC(=O)C(Cc2ccccc2)NC(=O)CNC(=O)CNC(=O)CNC(=O)C(CC(=O)O)NC(=O)[C@@H](CC(=O)O)NC(=O)C(CCCCN)NC(=O)[C@@H](CNC(=O)CN2CCN(CC(=O)O)CCN(CC(=O)O)CCN(CC(=O)O)CC2)NC(=O)C[N+](C)(C)Cc2ccc([Si](F)(C(C)(C)C)C(C)(C)C)cc2)C(=O)N[C@@H](Cc2ccc(O)cc2)C(=O)NC(Cc2c[nH]c3ccccc23)C(=O)N[C@@H](CCCCN)C(=O)N[C@@H]([C@@H](C)O)C(=O)N1)C(=O)O` (some centres unmarked) (natGa complex, metal not drawn) [[Ga]57], the “LogDpH=7.4” value in data set [1] is given as −2.25 ± 0.14. Moreover, the half-inhibitory concentration (IC50) at SST2 turned out to be 4.74 ± 0.22 nM.

For `C[C@@H](O)[C@H](NC(=O)C1CSSCC(NC(=O)C(Cc2ccccc2)NC(=O)CNC(=O)CNC(=O)CNC(=O)C(CC(=O)O)NC(=O)[C@@H](CC(=O)O)NC(=O)C(CCCNC(N)=O)NC(=O)[C@@H](CNC(=O)CN2CCN(CC(=O)O)CCN(CC(=O)O)CCN(CC(=O)O)CC2)NC(=O)C[N+](C)(C)Cc2ccc([Si](F)(C(C)(C)C)C(C)(C)C)cc2)C(=O)N[C@@H](Cc2ccc(O)cc2)C(=O)NC(Cc2c[nH]c3ccccc23)C(=O)N[C@@H](CCCCN)C(=O)N[C@@H]([C@@H](C)O)C(=O)N1)C(=O)O` (some centres unmarked) (natGa complex, metal not drawn) [[Ga]58], in data set [1], the “LogDpH=7.4” value is recorded as −2.31 ± 0.04. At SST2, the concentration for half-maximal inhibition (IC50) was 4.41 ± 0.81 nM.

As to `C[C@@H](O)[C@@H]1NC(=O)[C@H](CCCCN)NC(=O)C(Cc2ccc(NC(N)=O)cc2)NC(=O)[C@H](Cc2ccc(NC(=O)C3CC(=O)NC(=O)N3)cc2)NC(=O)[C@H](NC(=O)[C@H](Cc2ccc(Cl)cc2)NC(=O)CNC(=O)CNC(=O)CNC(=O)C(CC(=O)O)NC(=O)[C@@H](CC(N)=O)NC(=O)C(CNC(=O)CN2CCN(CC(=O)O)CCN(CC(=O)O)CCN(CC(=O)O)CC2)NC(=O)C[N+](C)(C)Cc2ccc([Si](F)(C(C)(C)C)C(C)(C)C)cc2)CSSCC(C(=O)NC(Cc2ccc(O)cc2)C(N)=O)NC1=O` (some centres unmarked) (natGa complex, metal not drawn) [[Ga]59], in data set [1], the “LogDpH=7.4” value was −2.14 ± 0.03. Besides, the IC50 at SST2 amounted to 23.7 ± 1.5 nM.

Consider `C[C@@H](O)[C@H](NC(=O)C1CSSCC(NC(=O)C(Cc2ccccc2)NC(=O)CNC(=O)CNC(=O)CNC(=O)C(CC(=O)O)NC(=O)[C@@H](CC(=O)O)NC(=O)C(CNC(=O)CN2CCN(CC(=O)O)CCN(CC(=O)O)CCN(CC(=O)O)CC2)NC(=O)CNC(=O)C[N+](C)(C)Cc2ccc([Si](F)(C(C)(C)C)C(C)(C)C)cc2)C(=O)N[C@@H](Cc2ccc(O)cc2)C(=O)NC(Cc2c[nH]c3ccccc23)C(=O)N[C@@H](CCCCN)C(=O)N[C@@H]([C@@H](C)O)C(=O)N1)C(=O)O` (some centres unmarked) (natGa complex, metal not drawn) [[Ga]60], for which the “LogDpH=7.4” value in data set [1] is on record as −2.24 ± 0.05. Also, the IC50 at SST2 is 4.15 ± 0.79 nM.

Regarding `C[C@@H](O)[C@H](NC(=O)C1CSSCC(NC(=O)C(Cc2ccccc2)NC(=O)CNC(=O)CNC(=O)[C@@H](CC(=O)O)NC(=O)C(CC(=O)O)NC(=O)[C@@H](CNC(=O)CN2CCN(CC(N)=O)CCN(CC(N)=O)CCN(CC(N)=O)CC2)NC(=O)C(CN)NC(=O)c2ccc([Si](F)(C(C)(C)C)C(C)(C)C)cc2)C(=O)N[C@@H](Cc2ccc(O)cc2)C(=O)NC(Cc2c[nH]c3ccccc23)C(=O)N[C@@H](CCCCN)C(=O)N[C@@H]([C@@H](C)O)C(=O)N1)C(=O)O` (some centres unmarked) [Ligand 36] ({Benzoyl(4-SiFtBu2)}-[ξDap][dDap](DO3AM)[ξD][dD]GG[ξF][ξC]Y[ξW]KT[ξC]T-OH; disulfide 8-13), the “LogDpH=7.4” value in data set [1] (listed as 36) is reported as −1.41 ± 0.07. The same compound returned an IC50 on SST2 of 7.05 ± 1.61 nM.

Take `C[C@@H](O)[C@H](NC(=O)C1CSSCC(NC(=O)C(Cc2ccccc2)NC(=O)CNC(=O)CNC(=O)CNC(=O)C(CC(=O)O)NC(=O)[C@@H](CC(=O)O)NC(=O)C(CNC(=O)CN2CCN(CC(N)=O)CCN(CC(N)=O)CCN(CC(N)=O)CC2)NC(=O)C[N+](C)(C)Cc2ccc([Si](F)(C(C)(C)C)C(C)(C)C)cc2)C(=O)N[C@@H](Cc2ccc(O)cc2)C(=O)NC(Cc2c[nH]c3ccccc23)C(=O)N[C@@H](CCCCN)C(=O)N[C@@H]([C@@H](C)O)C(=O)N1)C(=O)O` (some centres unmarked) [[Pb]54] (X1-[ξDap](DO3AM)[dD][ξD]GGG[ξF][ξC]Y[ξW]KT[ξC]T-OH; disulfide 8-13): the “LogDpH=7.4” value in data set [1] was −1.86 ± 0.04. The compound also returned a concentration for half-maximal inhibition (IC50) at SST2 of 4.24 ± 0.68 nM.

The record behind these values is patent publication US20240317780A1, “RADIOPHARMACEUTICAL SOMATOSTATIN RECEPTOR LIGANDS AND PRECURSORS THEREOF” (Technische Universität München, priority 2021, published 2024).
